Measured values taken from the supplement of paper PMC10883282.
± gives the standard deviation of the averaged measurements.

Tests used:
Assay in all cases: relative viability vs DMSO control (72 h) (fraction); higher = more viable cells
[1] = test system: SW982
Procedure, shortened: (§1)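 Percent growth from ATPLite readings, averaged over up to triplicate wells, was used as relative viability. Sarcoma cell lines were seeded into 384-well plates for 80–90% confluence, dosed after 24 h, and kept 72 h at 37 °C, 5% CO2. Data were rescaled to a range where 1 is full and 0 is none.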

[2] = test system: MES-SA
Procedure, shortened: as §1

[3] = test system: SK-ES-1
Procedure, shortened: as §1

[4] = test system: A204
Procedure, shortened: as §1

[5] = test system: VA-ES-BJ
Procedure, shortened: as §1

Cc1cccc(-c2[nH]c(CNc3ccccc3F)nc2-c2ccc3ncnn3c2)n1 [Vactosertib]
relative viability
Settings	[1]	[2]	[3]	[4]	[5]
0.00017 µM	0.9904 ± 0.0094	0.892 ± 0.03	0.986 ± 0.035	1.02 ± 0.052	1 ± 0.066
0.00051 µM	1.02 ± 0.034	0.881 ± 0.0083	0.97 ± 0.018	1.02 ± 0.031	1 ± 0.015
0.00152 µM	0.999 ± 0.021	0.885 ± 0.04	0.98 ± 0.029	1.02 ± 0.014	1.006 ± 0.0055
0.00457 µM	0.998 ± 0.011	0.866 ± 0.032	0.974 ± 0.028	1.01 ± 0.031	1.02 ± 0.015
0.01372 µM	0.9987 ± 0.0081	0.877 ± 0.022	1.02 ± 0.034	1.02 ± 0.082	1.026 ± 0.0052
0.04115 µM	1.03 ± 0.033	0.901 ± 0.028	1 ± 0.029	1.03 ± 0.053	1.04 ± 0.052
0.1235 µM	1.01 ± 0.021	0.894 ± 0.029	1.04 ± 0.059	0.983 ± 0.048	1.038 ± 0.0089
0.3704 µM	0.984 ± 0.012	0.897 ± 0.0097	1.02 ± 0.024	1.04 ± 0.044	1.08 ± 0.019
1.111 µM	1 ± 0.033	0.842 ± 0.038	0.964 ± 0.08	1.03 ± 0.088	1.11 ± 0.033
3.333 µM	1.02 ± 0.023	0.873 ± 0.013	1.01 ± 0.013	0.953 ± 0.012	1.11 ± 0.029
10 µM	0.936 ± 0.034	0.861 ± 0.031	0.898 ± 0.066	0.822 ± 0.08	1.11 ± 0.018

C[C@@H]1COC(Nc2ccc3ncnc(Nc4ccc(OCc5nccs5)c(Cl)c4)c3c2)=N1 [Varlitinib]
relative viability
Settings	[1]	[2]	[3]	[4]	[5]
0.00017 µM	0.982 ± 0.014	0.965 ± 0.024	0.975 ± 0.036	1.06 ± 0.038	1.06 ± 0.014
0.00051 µM	1.01 ± 0.013	0.965 ± 0.037	0.974 ± 0.025	1.06 ± 0.024	1.06 ± 0.014
0.00152 µM	0.966 ± 0.021	0.934 ± 0.021	0.976 ± 0.076	1.07 ± 0.056	1.05 ± 0.033
0.00457 µM	0.974 ± 0.012	0.97 ± 0.013	0.99 ± 0.077	1.06 ± 0.042	1.04 ± 0.015
0.01372 µM	0.986 ± 0.027	0.946 ± 0.045	0.971 ± 0.062	1.08 ± 0.022	1.08 ± 0.031
0.04115 µM	0.993 ± 0.031	0.9545 ± 0.009	0.997 ± 0.038	1.11 ± 0.012	1.07 ± 0.066
0.1235 µM	0.984 ± 0.024	0.945 ± 0.023	0.967 ± 0.043	1.06 ± 0.038	1.12 ± 0.045
0.3704 µM	0.932 ± 0.013	0.888 ± 0.041	0.962 ± 0.06	1.01 ± 0.052	1.09 ± 0.039
1.111 µM	0.918 ± 0.016	0.888 ± 0.03	0.948 ± 0.082	0.905 ± 0.062	1.05 ± 0.036
3.333 µM	0.949 ± 0.036	0.807 ± 0.05	0.873 ± 0.036	0.763 ± 0.037	1.06 ± 0.036
10 µM	0.883 ± 0.025	0.45 ± 0.035	0.671 ± 0.027	0.258 ± 0.027	0.96 ± 0.029

CC[C@@H]1C(=O)N(C)c2cnc(Nc3ccc(C(=O)N[C@H]4CC[C@H](N5CCN(CC6CC6)CC5)CC4)cc3OC)nc2N1C(C)C [Volasertib]
relative viability
Settings	[1]	[2]	[3]	[4]	[5]
0.00017 µM	1.047 ± 0.0053	0.938 ± 0.022	1.09 ± 0.013	1.13 ± 0.06	1.04 ± 0.052
0.00051 µM	1.07 ± 0.035	0.966 ± 0.02	1.1 ± 0.037	1.1 ± 0.031	1.04 ± 0.058
0.00152 µM	1.08 ± 0.013	0.936 ± 0.031	1.08 ± 0.035	1.07 ± 0.044	1.07 ± 0.059
0.00457 µM	1.06 ± 0.044	0.932 ± 0.051	1.1 ± 0.017	1.1 ± 0.031	1.06 ± 0.061
0.01372 µM	1.01 ± 0.04	0.924 ± 0.048	1.05 ± 0.033	1.08 ± 0.05	1.04 ± 0.049
0.04115 µM	0.353 ± 0.0062	0.637 ± 0.043	0.495 ± 0.042	0.858 ± 0.015	0.486 ± 0.0087
0.1235 µM	0.259 ± 0.01	0.173 ± 0.016	0.0483 ± 0.0011	0.669 ± 0.061	0.234 ± 0.016
0.3704 µM	0.209 ± 0.016	0.0889 ± 0.0028	0.0522 ± 0.0056	0.418 ± 0.047	0.108 ± 0.013
1.111 µM	0.182 ± 0.028	0.0861 ± 0.0034	0.0871 ± 0.0074	0.253 ± 0.015	0.0943 ± 0.0085
3.333 µM	0.15 ± 0.07	0.072 ± 0.0067	0.114 ± 0.0051	0.174 ± 0.021	0.074 ± 0.025
10 µM	0.0111 ± 0.0019	0.0076 ± 0.00079	0.0116 ± 0.001	0.0197 ± 0.0043	-0.00633 ± 0.0018
